US9809555B2, “Form of mefenpyr-diethyl, a process for its preparation and use of the same” (ROTAM AGROCHEM INTERNATIONAL COMPANY LIMITED, priority 2015, dated 2017)

Key:
[1] = Stability test: accelerated storage of formulations (CIPAC MT 46.3), mefenpyr-diethyl content by HPLC before and after aging; type: physicochemical; settings: stored at 54° C. for 1 week
Description: The stability of the mefenpyr-diethyl in these compositions was determined by aging samples in heated ovens having the same atmosphere therein, and then comparing the mefenpyr-diethyl content before and after aging to determine relative percentage of hydrolysis (RPH). RPH was calculated by the following equation: […]
Mefenpyr-diethyl content was determined by assaying the compositions with high-pressure liquid chromatography (HPLC) using reverse phase columns and eluants.
Samples prepared in Examples 4, 5 and 6 were stored at 54° C. for 1 week. The procedures are followed according to CIPAC MT 46.3. The concentration of mefenpyr-diethyl was measured at the end of each storage time by HPLC.

[2] = General stability of mefenpyr-diethyl forms (hydrolysis in water or on storage); type: physicochemical; settings: dissolved or dispersed in water, or during storage exposed to moisture, result in words
Source text: It will generally undergo significant hydrolysis when dissolved or dispersed in water. Furthermore, hydrolysis can occur during storage, particularly where the compound is exposed to moisture. As a result, the stability of mefenpyr-diethyl is of great concern with respect to providing the commercially available formulations. Therefore, there is a need to provide a novel form mefenpyr-diethyl with increased stability in formulations.
Accordingly, in an embodiment, the invention provides a novel crystalline form of mefenpyr-diethyl, termed “crystalline modification I”, and a process for its preparation, as well as its use in agrochemical compositions. […] Accordingly, in an embodiment, the invention also provides compositions for controlling undesirable plant growth, such as weeds, comprising the crystalline modification I of mefenpyr-diethyl with sulfonylurea herbicides, as a mixture with auxiliaries and carriers. The use of the crystalline modification I of mefenpyr-diethyl with sulfonylurea herbicides in the control of undesired plant growth and a method for the same are also provided by embodiments of the invention.

[3] = Example 4 oil based suspension concentrate (OD) with iodosulfuron-methyl-sodium, 10 weight % mefenpyr-diethyl
[4] = Example 5 soluble granules (SG) with mesosulfuron-methyl, 7 weight % mefenpyr-diethyl
[5] = Example 6 water dispersible granules (WG) with iodosulfuron-methyl-sodium, 7 weight % mefenpyr-diethyl

SMILES	RPH % (relative percentage of hydrolysis) [1, 3] [%]	RPH % (relative percentage of hydrolysis) [1, 4] [%]	RPH % (relative percentage of hydrolysis) [1, 5] [%]	stability (hydrolysis) ([2]; listed as mefenpyr-diethyl in amorphous state)	stability (hydrolysis) [2]
CCOC(=O)C1=NN(c2ccc(Cl)cc2Cl)C(C)(C(=O)OCC)C1 (racemic) [Amorphous mefenpyr-diethyl, diethyl (RS)-1-(2,4-dichlorophenyl)-5-methyl-2-pyrazoline-3,5-dicarboxylate]	50	40	45	highly unstable	–
CCOC(=O)C1=NN(c2ccc(Cl)cc2Cl)C(C)(C(=O)OCC)C1 (racemic) [Mefenpyr-diethyl, crystalline modification I] [diethyl (RS)-1-(2,4-dichlorophenyl)-5-methyl-2-pyrazoline-3,5-dicarboxylate]	0	0	0	–	increased stability relative to the amorphous form
